Source: US12679832B2, “Compounds and their uses as CD38 inhibitors” (Nanjing Immunophage Biotech Co., Ltd., priority 2021, dated 2026)
pIC50: −log10 of the molar value.

Target: T1, hCD38 Enzyme (Homo sapiens, UniProt P28907)
T1 construct: purchased Sino Biological Inc 10818-H08H
T1 sequence (P28907 43-300 limits assumed): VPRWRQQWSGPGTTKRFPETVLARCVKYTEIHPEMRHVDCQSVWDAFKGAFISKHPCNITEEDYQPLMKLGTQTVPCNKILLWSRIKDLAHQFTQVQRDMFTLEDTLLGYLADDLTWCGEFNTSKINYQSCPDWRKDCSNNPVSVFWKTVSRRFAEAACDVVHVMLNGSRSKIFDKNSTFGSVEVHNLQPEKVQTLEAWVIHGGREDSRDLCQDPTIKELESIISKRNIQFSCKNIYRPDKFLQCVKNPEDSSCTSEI
Experiment: CD38 hydrolase enzymatic assay
Format: biochemical
Settings: rhCD38, ε-NAD substrate, 25° C., point reading time 20 mins; read-out: hCD38 Enzyme inhibition IC50
Experimental: Also, a blank sample was prepared with 50 μl of sucrose buffer and no test compounds.
The dynamic reading was performed at 25° C. with excitation light of 300 nm and emission light of 410 nm on the enzyme marker by contacting the above-prepared rhCD38 enzyme working fluid and the above-prepared solutions of the test compounds disclosed herein or the solution of the control. The readings were recorded for a total of 1 hour, and the data were analyzed with the point reading time of 20 mins.
Fluorescence was recorded by a microplate reader. Individual excel files containing fluorescence data were exported and the results were plotted against various drug concentrations and analyzed in GraphPad Prism 7.0 for concentration curve generation.

pIC50	SMILES
7.80	C[C@H]1CC[C@H](NC(=O)c2cc(OC3COC3)nc(-n3ccnc3)n2)CC1 [Compound 150]
7.96	CC(C)(O)c1ccc(NC(=O)c2cc(C(F)(F)F)nc(-n3ccnc3)n2)cc1F [Compound 180]
8.02	COCCOc1cc(F)cc(NC(=O)c2cc(C(F)(F)F)nc(-n3ccnc3)n2)c1 [Compound 182]
7.55	CO[C@H]1CC[C@H](NC(=O)c2cc(-c3ccnc(C(F)(F)F)c3)nc(-n3ccnc3)n2)CC1 [Compound 184]
7.54	CO[C@H]1CC[C@H](NC(=O)c2cc(-n3ccnc3)cc(-n3ccnc3)n2)CC1 [compound 1, 4,6-di (1H-imidazol-1-yl)-N-((1r,4r)-4-methoxycyclohexyl)picolinamide]
5.57	CO[C@H]1CC[C@H](NC(=O)c2cc(-n3ccnc3)cc(Cl)n2)CC1 [compound 2, 6-chloro-4-(1H-imidazol-1-yl)-N-((1r,4r)-4-methoxycyclohexyl)picolinamide]
< 5.00	CO[C@H]1CC[C@H](NC(=O)c2cc(-n3ccnc3)cc(=O)[nH]2)CC1 [compound 3, 4-(1H-imidazol-1-yl)-N-((1r,4r)-4-methoxycyclohexyl)-6-oxo-1.6-dihydropyridine-2-carboxamide]
7.40	COc1cc(C(=O)N[C@H]2CC[C@H](OC)CC2)nc(-n2ccnc2)c1 [compound 4, 6-(1H-imidazol-1-yl)-4-methoxy-N-((1r,4r)-4-methoxycyclohexyl)picolinamide]
6.05	CO[C@H]1CC[C@H](NC(=O)c2cc(O)cc(-n3ccnc3)n2)CC1 [compound 5, 4-hydroxy-6-(1H-imidazol-1-yl)-N-((1r,4r)-4-methoxycyclohexyl)picolinamide]
< 5.00	CO[C@H]1CC[C@H](NC(=O)c2cc(-c3cncs3)ccc2NC(C)=O)CC1 [compound 6, 2-acetamido-N-((1r,4r)-4-methoxycyclohexyl)-5-(thiazol-5-yl) benzamide]
< 5.00	CO[C@H]1CC[C@H](NC(=O)c2cc(-c3cncs3)ccc2N)CC1 [compound 7, 2-amino-N-((1r,4r)-4-methoxycyclohexyl)-5-(thiazol-5-yl) benzamide]
< 5.00	CO[C@H]1CC[C@H](NC(=O)c2cccc(-c3cncs3)c2F)CC1 [compound 8, 2-fluoro-N-((1r,4r)-4-methoxycyclohexyl)-3-(thiazol-5-yl)benzamide]
6.14	CO[C@H]1CC[C@H](NC(=O)c2cc(-n3ccnc3)nnc2N)CC1 [compound 10, 3-amino-6-(1H-imidazol-1-yl)-N-((1r,4r)-4-methoxycyclohexyl)pyridazine-4-carboxamide]
< 5.00	CO[C@H]1CC[C@H](NC(=O)c2cccc(-c3cncs3)n2)CC1 [compound 12, N-((1r,4r)-4-methoxycyclohexyl)-6-(thiazol-5-yl)picolinamide]
< 5.00	CO[C@H]1CC[C@H](NC(=O)c2cccc(-c3ccno3)n2)CC1 [compound 17, 6-(isoxazol-5-yl)-N-((1r,4r)-4-methoxycyclohexyl)picolinamide]
< 5.00	CO[C@H]1CC[C@H](NC(=O)c2cccc(-c3nnco3)n2)CC1 [compound 19, N-((1r,4r)-4-methoxycyclohexyl)-6-(1,3,4-oxadiazol-2-yl) picolinamide]
< 5.00	CO[C@H]1CC[C@H](NC(=O)c2ccc(N)c(-n3ccnc3)n2)CC1 [compound 20, 5-amino-6-(1H-imidazol-1-yl)-N-((1r,4r)-4-methoxycyclohexyl)picolinamide]
8.10	CO[C@H]1CC[C@H](NC(=O)c2cc(-n3ccnc3)nc(N)n2)CC1 [compound 21, 2-amino-6-(1H-imidazol-1-yl)-N-((1r,4r)-4-methoxycyclohexyl)pyrimidine-4-carboxamide]

pIC50	SMILES
5.56	CNc1nc(C(=O)N[C@H]2CC[C@H](OC)CC2)cc(-n2ccnc2)n1 [compound 22, 6-(1H-imidazol-1-yl)-N-((1r,4r)-4-methoxycyclohexyl)-2-(methylamino)pyrimidine-4-carboxamide]
7.35	CO[C@H]1CC[C@H](NC(=O)c2cc(N(C)C)nc(-n3ccnc3)n2)CC1 [compound 23, 6-(dimethylamino)-2-(1H-imidazol-1-yl)-N-((1r,4r)-4-methoxycyclohexyl)pyrimidine-4-carboxamide]
7.52	CNc1cc(C(=O)N[C@H]2CC[C@H](OC)CC2)nc(-n2ccnc2)n1 [compound 24, 2-(1H-imidazol-1-yl)-N-((1r,4r)-4-methoxycyclohexyl)-6-(methylamino)pyrimidine-4-carboxamide]
7.34	CO[C@H]1CC[C@H](NC(=O)c2cc(N3CCCCC3)nc(-n3ccnc3)n2)CC1 [compound 26, 2-(1H-imidazol-1-yl)-N-((1r,4r)-4-methoxycyclohexyl)-6-(piperidin-1-yl)pyrimidine-4-carboxamide]
6.07	CO[C@H]1CC[C@H](NC(=O)c2nc(-c3cncs3)cnc2N)CC1 [compound 27, 3-amino-N-((1r,4r)-4-methoxycyclohexyl)-6-(thiazol-5-yl)pyrazine-2-carboxamide]
4.65	CO[C@H]1CC[C@H](NC(=O)c2cc(-n3ccnc3)cnn2)CC1 [compound 28, 5-(1H-imidazol-1-yl)-N-((1r,4r)-4-methoxycyclohexyl)pyridazine-3-carboxamide]
7.60	CO[C@H]1CC[C@H](NC(=O)c2cc(-c3cncs3)cc3cc[nH]c23)CC1 [compound 29, N-((1r,4r)-4-methoxycyclohexyl)-5-(thiazol-5-yl)-1H-indole-7-carboxamide]
7.38	O=C(NC1CCCCC1)c1cncc(-n2ccnc2)n1 [compound 30, N-cyclohexyl-6-(1H-imidazol-1-yl)pyrazine-2-carboxamide]
6.40	CC(C)NC(=O)c1cncc(-n2ccnc2)n1 [compound 31, 6-(1H-imidazol-1-yl)-N-isopropylpyrazine-2-carboxamide]
7.08	O=C(NC1CCOCC1)c1cncc(-n2ccnc2)n1 [compound 32, 6-(1H-imidazol-1-yl)-N-(tetrahydro-2H-pyran-4-yl)pyrazine-2-carboxamide]
5.39	O=C(NC1CCNCC1)c1cncc(-n2ccnc2)n1 [compound 33, 6-(1H-imidazol-1-yl)-N-(piperidin-4-yl)pyrazine-2-carboxamide]
5.41	CC(C)(C)NC(=O)c1cncc(-n2ccnc2)n1 [compound 34, N-(tert-butyl)-6-(1H-imidazol-1-yl)pyrazine-2-carboxamide]
8.40	O=C(Nc1ccccc1)c1cncc(-n2ccnc2)n1 [compound 35, 6-(1H-imidazol-1-yl)-N-phenylpyrazine-2-carboxamide]
5.01	CN1CCC(NC(=O)c2cncc(-n3ccnc3)n2)CC1 [compound 36, 6-(1H-imidazol-1-yl)-N-(1-methylpiperidin-4-yl)pyrazine-2-carboxamide]
6.46	O=C(NCC1CCCCC1)c1cncc(-n2ccnc2)n1 [compound 37, N-(cyclohexylmethyl)-6-(1H-imidazol-1-yl)pyrazine-2-carboxamide]
6.34	O=C(NCc1ccccc1)c1cncc(-n2ccnc2)n1 [compound 38, N-benzyl-6-(1H-imidazol-1-yl)pyrazine-2-carboxamide]
6.65	CC(NC(=O)c1cncc(-n2ccnc2)n1)C1CCCCC1 (centres unmarked) [compound 39, N-(1-cyclohexylethyl)-6-(1H-imidazol-1-yl)pyrazine-2-carboxamide]
